Marks after values point to notes of the source that are not given here.
Columns and labels:
[1] = set-up: method as in doi:10.1021/la981295l; settings: cited from earlier work
[2] = Water solubility (qualitative); assay type: physicochemical; settings: qualitative statement
Description: In all cases, the pKap values are smaller than those described by Fitch, as well as those cited in many biochemistry textbooks. The presence of fatty chains in arginine surfactants induces the formation of aggregates in which the positive charges are close to each other. As a result, the repulsion between these charges induces the release of protons, thus increasing the acid character of the compound. The cmc is mainly governed by the hydrophobic content of the molecules. For the same spacer chain, the cmc drastically decreases as the alkyl chain increases. For the same alkyl chain of 12 carbon atoms, the cmc slightly diminishes as the number of the methylene groups in the spacer increases. Unconventional aggregation behavior and two cmcs were inferred from different techniques. The first cmcs, inferred primarily from tension data, are between 0.002 and 0.005 mM. Fluorescence and conductivity experiments indicated a second cmc at concentrations two orders of magnitude higher than that from surface tension (0.3–0.6 mM). The low cmc obtained by surface tension measurements was ascribed to non-globular aggregates with small aggregation numbers larger than two or three, given the nearly constant surface tension above these cmc. The surface tension values at the first cmc were in the same order for all gemini surfactants. […]

[3] = system: methicillin-resistant Staphylococcus aureus (MRSA) ATCC 43300 biofilm; assay: Biofilm eradication, crystal violet; assay type: cell-based; settings: at 32 μg/mL
Description: (§1) The ability of these geminis to disperse and eradicate biofilms once formed on the propylene surfaces of the microtiter plates was evaluated using the same bacterial strains. […] The susceptibility of both biofilms against the tested surfactants was similar. At a low concentration of 32 μg/mL, C3(CA)2 and C3(LA)2 were able to eradicate around 60–70% of preformed biofilm; however, at this concentration, the […] hydrophobic compound, C3(OA)2, eradicated less than 30% of biofilm. At high concentrations, the eradication percentage is similar for all alkyl chains. […] In this case, at low concentrations, there is not a clear dependence between the antibiofilm properties and the spacer; however, at a high concentration, the best effectivity was obtained for the longer spacer chains.
(§2) Antibiofilm activity was assessed against biofilm-producing strains of methicillin-resistant Staphylococcus aureus (MRSA) ATCC 43300 and Pseudomonas aeruginosa PAO1. Biofilm inhibition and eradication capacities of the gemini surfactants were evaluated against adherent bacterial biofilms grown in 96-well microtiter plates. Bacteria were grown overnight in tryptic soy agar at 37 °C for 24 h. The bacteria were suspended in lysogeny broth with glucose (1%) at 1.5 × 10^8 CFU/mL.
(§3) Biofilm eradication procedure: For mature biofilm formation, 200 μL of the diluted bacterial suspension was added to each well in a 96-well microplate and incubated at 37 °C for 24 h. The wells were gently rinsed with phosphate-buffered saline (PBS) and 200 μL of the corresponding gemini surfactant solution was added to each well and incubated again at 37 °C for 24 h. Two-fold serial dilutions of the gemini surfactant were used (4–128 μg/mL). After the plates were air dried, the biofilms were stained with 50 μL of 0.1 of % crystal violet for 25 min. The plates were rinsed with water and then 150 μL of 96% ethanol containing 10% acetic acid was added to all 96-well plates to dissolve the remaining crystal violet-stained biofilm. The absorbance value was recorded at 570 nm. Each assay was conducted at least three times and the results were averaged.

[4] = system: Pseudomonas aeruginosa PAO1 biofilm; assay: Biofilm eradication, crystal violet; assay type: cell-based; settings: P. aeruginosa PAO1, at 32 μg/mL
Description: as §1, §2, §3

[5] = system: Gram-positive and Gram-negative bacteria; assay: Minimum inhibitory concentration (MIC), broth microdilution; assay type: cell-based; settings: planktonic bacteria, 24 h at 37 °C, values only in Figure 2
Description: The Gram-positive bacteria tested include some problematic microorganisms such us L. monocytogenes; these bacteria cause listeriosis, a serious disease that has grown considerably in industrialized countries due to the increased ratio of immunosuppressed persons and the extensive use of refrigerated food. We have also tested the effectivity of these surfactants against methicillin-resistant Staphylococcus aureus (MRSA), which is known as a major cause of hospital-acquired infections and, at this time, is a remarkable public health problem. […] For comparison, this figure also includes the MIC values of a LAM (lauroyl arginine methyl ester) surfactant that can be considered the single-stranded homologue of these geminis and the BAC (benzalkonium ammonium chloride), a quaternary ammonium surfactant widely used as antiseptic.
Antimicrobial tests were carried out against the following microorganisms: Bacillus subtilis ATCC 6633, Staphylococcus epidermidis ATCC 12228, Staphylococcus aureus ATCC 29213, Listeria monocytogenes ATCC 15313, Enterococcus faecalis ATCC 29212, Escherichia coli ATCC 25922, Acinetobacter baumannii ATCC 19606, Klebsiella aerogenes ATCC 13048, methicillin-resistant Staphylococcus aureus ATCC 43300 and Pseudomonas aeruginosa PAO1. […] The growth of the microorganisms was determined visually after incubation for 24 h at 37 °C. […]

[6] = set-up: method as in doi:10.1021/la981295l; settings: cited from earlier work; remark: listed apart in the source
[7] = set-up: method as in doi:10.1021/la981295l; settings: cited from earlier work; remark: listed apart in the source
[8] = biological target: porcine pancreatic elastase (Sus scrofa, UniProt P00772); assay: Elastase inhibitory assay; assay type: biochemical; settings: 40 µL of 1000 µg/mL stock; EGCG 250 μM
Sequence of porcine pancreatic elastase (P00772 27-266): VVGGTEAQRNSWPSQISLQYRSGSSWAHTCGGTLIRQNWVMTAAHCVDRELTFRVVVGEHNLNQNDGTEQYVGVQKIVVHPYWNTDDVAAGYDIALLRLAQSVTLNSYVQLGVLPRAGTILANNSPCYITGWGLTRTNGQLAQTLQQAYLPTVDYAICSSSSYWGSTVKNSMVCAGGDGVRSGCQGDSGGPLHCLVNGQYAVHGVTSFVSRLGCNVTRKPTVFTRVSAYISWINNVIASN
Description: The elastase inhibition was tested according to the method described by […] et al.. First, a stock solution of each surfactant at 1000 μg/mL was prepared in sterile ultrapure water. A stock solution of porcine pancreatic elastase at 3.33 mg/mL in sterile ultrapure water was also prepared. The substrate […] (Ala) 3-p-nitroanilide was dissolved in 0.2 mM Tris-HCl buffer solution (pH 8.0). The samples (40 μL) were then diluted and incubated together with the enzyme for 15 min prior to the substrate addition. Negative control was sterile ultrapure water, while EGCG (250 μM or 0.114 mg/mL) was used as the positive control. The absorbance at λ = 410 nm was measured immediately after the substrate addition and continuously during the next 2 h using an Elx800 Microplate Reader (Biotek®). […] The anti-elastase activity (in %), determined in triplicate, was calculated according to the following equation:(2) Elastase inhibitory activity %=A1-A2/A1×100 where A1 and A2 represent the absorbance in the absence and presence of the testing samples, respectively.

[9] = system: Collagenase from Clostridium histolyticum (ChC); assay: Collagenase inhibitory activity assay (FALGPA substrate); assay type: biochemical; settings: approximately 25 μg of sample in the reaction mixture, 15 min preincubation
Description: The inhibition of collagenase followed the methodology proposed by Thring et al.. First, a solution containing the surfactants at 1000 μg/mL was prepared. An aliquot of 40 μL of each sample was used in the assay. Collagenase from Clostridium histolyticum (ChC) was dissolved in tricine buffer (50 mM, pH 8.0) immediately before use at an initial concentration of 0.35 U/mL. The synthetic substrate N-[3- (2-furyl) acryloyl]-Leu-Gly-Pro-Ala (FALGPA) (40 μL) was dissolved in the kit buffer (60 μL) according to the supplier information. The samples of C3(LA)2, C6(LA)2 and C9(LA)2 were incubated with the enzyme for 15 min before the substrate addition. The final reaction mixture contained tricine buffer, 0.8 mM FALGPA, 0.1 U of ChC and approximately 25 μg of each surfactant. Ultrapure water was used as a negative control, while the positive control was EGCG solution, prepared at the same concentration of the surfactants. The absorbance at λ = 345 nm was measured immediately after the substrate incorporation and continuously during 20 min in kinetic mode using an Elx800 Microplate Reader Biotek® (Winooski, VT, USA). The collagenase inhibitory activity of each sample was determined in triplicate, according to the following equation:(1) Collagenase inhibitory activity %=A1−A2/A1×100 where A1 and A2 represent the absorbance in the absence and presence of sample, respectively.

[10] = system: bovine hyaluronidase; assay: Hyaluronidase inhibitory activity; assay type: biochemical; settings: positive control
Description: The hyaluronidase inhibitory activity was performed according to the method used by Altinyay et al. with some modifications. Briefly, a work solution containing bovine hyaluronidase (7900 units/mL) in 0.1 M acetate buffer (pH 3.6) was prepared. Fifty microliters of the work solution were mixed 1:1 with the surfactants’ solution in 5% DMSO. For the negative control, 50 μL of 5% DMSO was used, while EGCG was used as positive control. After 20 min of incubation at 37 °C, 50 μL of calcium chloride (12.5 mM) was added to the mixture and again incubated for 20 min at 37 °C. At that point, 250 μL sodium hyaluronate (1.2 mg/mL) was added and incubated for 40 min at 37 °C. After incubation, the mixture was treated with 50 μL of 0.4 M NaOH and 100 μL of 0.2 M sodium borate and then incubated for 3 min in a boiling water bath. After cooling to room temperature, 1.4 mL of p-dimethylaminobenzaldehyde solution was added to the reaction mixture, being further incubated at 37 °C for 20 min. The resulting colored solution was measured at λ = 585 nm (PerkinElmer-Lambda 35, Brazil). The hyaluronidase inhibitory activity of each sample was calculated according to the following formula:(3) Hyaluronidase inhibitory activity %=A1−A2/A1×100 where A1 and A2 represent the absorbance in the absence and presence of the testing sample, respectively.

Structure (SMILES)	CMC (mM) Fluorescence [1]	water solubility [2]	preformed biofilm eradicated [3]	preformed biofilm eradicated [4]	antimicrobial activity (MIC), in words [5]	CMC (mM) Conductivity [6]	CMC (mM) Surface Tension [7]	γcmc ([7]; surface tension at the cmc)	anti-elastase activity (inhibition) [8] [%]	anti-collagenase activity (inhibition) [9] [%]	hyaluronidase inhibitory activity [10] [%]
CCCCCCCCCC(=O)NC(CCCNC(=N)N)C(=O)NCCCNC(=O)C(CCCNC(=N)N)NC(=O)CCCCCCCCC (centres unmarked) [C3(CA)2]	3 * mM	very good water solubility	60–70%	60–70%	most active against all tested microorganisms	2 * mM	0.043 * mM	32 * mN/m			
O=C(O[C@@H]1Cc2c(O)cc(O)cc2O[C@@H]1c1cc(O)c(O)c(O)c1)c1cc(O)c(O)c(O)c1 [EGCG, epigalocatequin-3-galate, reference compound]									67.3	54.2	13

Source: PMC10536132, “Arginine Gemini-Based Surfactants for Antimicrobial and Antibiofilm Applications: Molecular Interactions, Skin-Related Anti-Enzymatic Activity and Cytotoxicity” (Molecules, 2023)
